Data on 21 compounds can be found in patent publication US20240383875A1, “Benzimidazole Pyridine Derivatives” (Hoffmann-La Roche Inc., priority 2022, published 2024).

Common to all, as to format: biochemical
For one experiment, the target named is SIK1 (Homo sapiens, UniProt P57059). Description: Enzymatic activity assay SIK1, RapidFire mass spectrometry (phosphorylation of CHK-peptide). The note with it: RapidFire MS, inhibition of SIK1; read-out: SIK1 RF IC50. The gist of the method: (§1)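 Compounds (12-point, 3-fold, generally 30 μM to 170 pM) were pre-incubated 30 min at ambient temperature with SIK1 (5 nM), SIK2 (0.5 nM) or SIK3 (1.5 nM) in HEPES pH 7.0/magnesium acetate buffer. CHK-peptide (10 μM solution) and ATP (100 μM solution) were then added for 45 min before formic acid quench.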
Chain of SIK1 (P57059 whole entry): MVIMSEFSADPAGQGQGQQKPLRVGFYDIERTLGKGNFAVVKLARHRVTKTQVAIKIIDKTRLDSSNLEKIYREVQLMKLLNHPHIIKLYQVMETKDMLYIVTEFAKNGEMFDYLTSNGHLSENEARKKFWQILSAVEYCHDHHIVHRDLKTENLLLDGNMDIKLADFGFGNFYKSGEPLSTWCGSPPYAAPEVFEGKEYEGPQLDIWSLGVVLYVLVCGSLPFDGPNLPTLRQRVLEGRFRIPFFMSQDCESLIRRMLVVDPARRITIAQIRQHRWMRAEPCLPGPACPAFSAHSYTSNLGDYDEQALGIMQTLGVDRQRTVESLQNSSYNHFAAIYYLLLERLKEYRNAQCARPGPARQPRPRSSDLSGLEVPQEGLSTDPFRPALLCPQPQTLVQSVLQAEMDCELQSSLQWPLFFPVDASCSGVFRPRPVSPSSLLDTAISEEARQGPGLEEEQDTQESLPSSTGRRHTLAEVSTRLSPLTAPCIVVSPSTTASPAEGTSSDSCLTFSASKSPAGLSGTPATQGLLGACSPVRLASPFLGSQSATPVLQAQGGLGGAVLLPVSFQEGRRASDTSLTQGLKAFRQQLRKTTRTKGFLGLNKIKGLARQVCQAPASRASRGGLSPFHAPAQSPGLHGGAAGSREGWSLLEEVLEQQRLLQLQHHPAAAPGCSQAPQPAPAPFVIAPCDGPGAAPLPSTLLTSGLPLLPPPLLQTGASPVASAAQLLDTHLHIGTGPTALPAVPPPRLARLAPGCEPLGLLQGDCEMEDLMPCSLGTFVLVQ

The next experiment has as its target SIK2 (Homo sapiens, UniProt Q9H0K1). In words: Enzymatic activity assay SIK2, RapidFire mass spectrometry (phosphorylation of CHK-peptide). The conditions noted are these: RapidFire MS, inhibition of SIK2; read-out: SIK2 RF IC50. A digest of the protocol: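 SIK2 (0.5 nM) in pH 7.0 HEPES buffer with 10 mM Mg acetate phosphorylates CHK-peptide (10 μM solution) with 100 μM ATP solution, 45 min ambient, then formic acid quench.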

In the next experiment the target is SIK3 (Homo sapiens, UniProt Q9Y2K2). Description: Enzymatic activity assay SIK3, RapidFire mass spectrometry (phosphorylation of CHK-peptide). The note with it: RapidFire MS, inhibition of SIK3; read-out: SIK3 RF IC50. A digest of the protocol:
as §1

Chain of SIK2 (Q9H0K1 whole entry): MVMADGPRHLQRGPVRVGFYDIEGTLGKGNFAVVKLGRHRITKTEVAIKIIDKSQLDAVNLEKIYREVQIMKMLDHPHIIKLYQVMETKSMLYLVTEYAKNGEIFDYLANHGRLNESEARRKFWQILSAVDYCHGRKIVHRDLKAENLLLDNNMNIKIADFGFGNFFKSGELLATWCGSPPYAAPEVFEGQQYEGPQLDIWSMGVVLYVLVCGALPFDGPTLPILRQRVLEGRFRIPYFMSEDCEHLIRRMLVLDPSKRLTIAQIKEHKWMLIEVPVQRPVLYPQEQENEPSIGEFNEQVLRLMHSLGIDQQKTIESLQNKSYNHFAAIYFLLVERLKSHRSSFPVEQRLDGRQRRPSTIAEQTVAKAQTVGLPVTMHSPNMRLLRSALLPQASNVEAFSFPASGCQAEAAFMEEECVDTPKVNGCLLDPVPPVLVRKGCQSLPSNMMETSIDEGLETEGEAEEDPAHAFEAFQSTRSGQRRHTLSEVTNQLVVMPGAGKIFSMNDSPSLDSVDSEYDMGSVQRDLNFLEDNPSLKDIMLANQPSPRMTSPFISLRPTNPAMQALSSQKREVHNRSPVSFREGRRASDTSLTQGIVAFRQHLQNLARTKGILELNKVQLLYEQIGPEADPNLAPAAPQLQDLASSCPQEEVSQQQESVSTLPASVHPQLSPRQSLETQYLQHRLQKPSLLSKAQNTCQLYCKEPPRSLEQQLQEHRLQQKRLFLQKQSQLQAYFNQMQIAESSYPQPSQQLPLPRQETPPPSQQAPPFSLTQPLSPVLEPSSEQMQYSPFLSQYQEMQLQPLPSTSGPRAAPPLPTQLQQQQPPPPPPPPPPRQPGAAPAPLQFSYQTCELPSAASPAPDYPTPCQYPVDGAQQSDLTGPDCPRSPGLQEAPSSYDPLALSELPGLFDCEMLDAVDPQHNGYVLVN
Chain of SIK3 (Q9Y2K2 whole entry): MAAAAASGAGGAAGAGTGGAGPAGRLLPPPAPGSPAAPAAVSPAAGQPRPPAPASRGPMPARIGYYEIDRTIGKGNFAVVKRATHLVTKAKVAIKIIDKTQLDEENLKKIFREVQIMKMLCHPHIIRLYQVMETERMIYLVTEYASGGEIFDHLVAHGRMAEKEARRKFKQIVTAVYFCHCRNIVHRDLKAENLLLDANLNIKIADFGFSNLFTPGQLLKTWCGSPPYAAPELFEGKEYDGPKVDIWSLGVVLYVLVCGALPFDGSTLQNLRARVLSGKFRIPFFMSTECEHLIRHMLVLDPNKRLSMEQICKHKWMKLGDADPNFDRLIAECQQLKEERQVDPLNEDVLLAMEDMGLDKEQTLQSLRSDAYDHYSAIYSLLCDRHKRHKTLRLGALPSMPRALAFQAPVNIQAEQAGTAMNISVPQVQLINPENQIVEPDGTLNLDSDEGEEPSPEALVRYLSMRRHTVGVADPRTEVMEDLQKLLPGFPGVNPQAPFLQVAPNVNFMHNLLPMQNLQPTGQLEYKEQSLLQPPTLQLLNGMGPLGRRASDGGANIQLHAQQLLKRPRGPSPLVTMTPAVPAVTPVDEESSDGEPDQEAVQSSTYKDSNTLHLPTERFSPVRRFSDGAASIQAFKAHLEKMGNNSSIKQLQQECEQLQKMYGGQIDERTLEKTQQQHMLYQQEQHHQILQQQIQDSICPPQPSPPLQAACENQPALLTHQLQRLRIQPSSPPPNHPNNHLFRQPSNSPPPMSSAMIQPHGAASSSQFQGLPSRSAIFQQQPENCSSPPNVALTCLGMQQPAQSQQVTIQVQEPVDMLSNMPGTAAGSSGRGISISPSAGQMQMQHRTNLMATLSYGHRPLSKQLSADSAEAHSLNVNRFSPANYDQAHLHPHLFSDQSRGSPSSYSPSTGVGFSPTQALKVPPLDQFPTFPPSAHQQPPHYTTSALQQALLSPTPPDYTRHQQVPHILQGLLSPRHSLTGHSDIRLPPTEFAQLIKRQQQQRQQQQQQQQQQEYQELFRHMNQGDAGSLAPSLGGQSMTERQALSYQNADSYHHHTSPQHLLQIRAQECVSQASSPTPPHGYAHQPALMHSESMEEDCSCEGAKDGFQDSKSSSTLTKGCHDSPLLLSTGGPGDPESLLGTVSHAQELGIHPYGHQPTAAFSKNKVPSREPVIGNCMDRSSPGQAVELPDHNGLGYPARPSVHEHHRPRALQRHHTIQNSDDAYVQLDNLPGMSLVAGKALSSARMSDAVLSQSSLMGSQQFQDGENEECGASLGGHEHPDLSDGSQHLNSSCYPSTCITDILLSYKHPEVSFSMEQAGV

Turning to `Cc1cc(C(F)F)nn1-c1nc(-n2cnc3cc(Nc4ccc(Cl)nn4)c(F)cc32)ccc1C(C)O` (stereo not drawn) [Example 372, 1-[6-[5-[(6-chloropyridazin-3-yl)amino]-6-fluoro-benzimidazol-1-yl]-2-[3-(difluoromethyl)-5-methyl-pyrazol-1-yl]-3-pyridyl]ethanol], the 50% inhibitory concentration (IC50) stood at 1220 nM on SIK1, 8.5 nM at SIK2 and 3.6 nM at SIK3.

As for `Cc1cc(OC(F)F)nn1-c1nc(-n2cnc3cc(Nc4cccnn4)c(F)cc32)ccc1[C@H](C)O` [Example 373, (1S)-1-[2-[3-(difluoromethoxy)-5-methyl-pyrazol-1-yl]-6-[6-fluoro-5-(pyridazin-3-ylamino)benzimidazol-1-yl]-3-pyridyl]ethanol], the concentration for half-maximal inhibition (IC50) was determined as 184 nM at SIK1, 0.8 nM on SIK2 and 0.7 nM at SIK3.

Turning to `Cc1ccc(Nc2cc3ncn(-c4ccc([C@H](C)O)c(-n5nc(OC(F)F)cc5C)n4)c3cc2F)nn1` [Example 374, (1S)-1-[2-[3-(difluoromethoxy)-5-methyl-pyrazol-1-yl]-6-[6-fluoro-5-[(6-methylpyridazin-3-yl)amino]benzimidazol-1-yl]-3-pyridyl]ethanol], the IC50 at SIK1 amounted to 88 nM; on SIK2, 0.3 nM; on SIK3, 0.4 nM.

Regarding `Cc1ccc(Nc2cc3ncn(-c4ccc([C@@H](C)O)c(-n5nc(OC(F)F)cc5C)n4)c3cc2F)nn1` [Example 375, (1R)-1-[2-[3-(difluoromethoxy)-5-methyl-pyrazol-1-yl]-6-[6-fluoro-5-[(6-methylpyridazin-3-yl)amino]benzimidazol-1-yl]-3-pyridyl]ethanol], the half-maximal inhibitory concentration (IC50) on SIK1 is 998 nM; at SIK2, 6 nM; at SIK3, 8.7 nM.

`Cc1nnc(Nc2cc3c(cc2F)ncn3-c2ccc(C(C)O)c(-n3nc(C#N)cc3C)n2)o1` (stereo not drawn) [Example 376, 1-[6-[5-fluoro-6-[(5-methyl-1,3,4-oxadiazol-2-yl)amino]benzimidazol-1-yl]-3-(1-hydroxyethyl)-2-pyridyl]-5-methyl-pyrazole-3-carbonitrile]: the IC50 on SIK1 turned out to be 14 nM; at SIK2, 9.6 nM; on SIK3 it was 42 nM.

For the compound `Cc1nnc(Nc2cc3ncn(-c4ccc(C(C)O)c(-n5nc(C#N)cc5C)n4)c3cc2F)o1` (stereo not drawn) [Example 377, 1-[6-[6-fluoro-5-[(5-methyl-1,3,4-oxadiazol-2-yl)amino]benzimidazol-1-yl]-3-(1-hydroxyethyl)-2-pyridyl]-5-methyl-pyrazole-3-carbonitrile], the IC50 worked out at 47 nM on SIK1, 31.5 nM at SIK2 and 43.2 nM on SIK3.

For the compound `Cc1cc(C#N)nn1-c1nc(-n2cnc3cc(Nc4ccc(F)c(F)c4F)c(F)cc32)ccc1C(C)O` (stereo not drawn) [Example 378, 1-[6-[6-fluoro-5-(2,3,4-trifluoroanilino)benzimidazol-1-yl]-3-(1-hydroxyethyl)-2-pyridyl]-5-methyl-pyrazole-3-carbonitrile], the 50% inhibitory concentration (IC50) at SIK1 was 79 nM; on SIK2, 32.5 nM; at SIK3 it was 21.7 nM.

Consider `Cc1cc(C#N)nn1-c1nc(-n2cnc3cc(F)c(Nc4ccc(F)c(F)c4F)cc32)ccc1C(C)O` (stereo not drawn) [Example 379, 1-[6-[5-fluoro-6-(2,3,4-trifluoroanilino)benzimidazol-1-yl]-3-(1-hydroxyethyl)-2-pyridyl]-5-methyl-pyrazole-3-carbonitrile], for which the IC50 stood at 1 nM at SIK1, 0.2 nM at SIK2 and 0.4 nM at SIK3.

For `Cc1cc(C#N)nn1-c1nc(-n2cnc3cc(NC(=O)C4(F)CC4)ccc32)ccc1C(C)O` (stereo not drawn) [Example 380, N-[1-[6-(3-cyano-5-methyl-pyrazol-1-yl)-5-(1-hydroxyethyl)-2-pyridyl]benzimidazol-5-yl]-1-fluoro-cyclopropanecarboxamide], the IC50 on SIK1 was 81 nM; at SIK2, 16.6 nM; on SIK3 it was 12.4 nM.

Consider `Cc1cc(C#N)nn1-c1nc(-n2cnc3cc(F)c(Nc4cc5c(nn4)CCC5)cc32)ccc1C(C)O` (stereo not drawn) [Example 381, 1-[6-[6-(6,7-dihydro-5~{H}-cyclopenta[c]pyridazin-3-ylamino)-5-fluoro-benzimidazol-1-yl]-3-(1-hydroxyethyl)-2-pyridyl]-5-methyl-pyrazole-3-carbonitrile], for which the IC50 turned out to be 55 nM at SIK1, 32.7 nM at SIK2 and 195 nM on SIK3.

As for `Cc1cc(C#N)nn1-c1nc(-n2cnc3cc(Nc4cc5c(nn4)CCC5)c(F)cc32)ccc1C(C)O` (stereo not drawn) [Example 382, 1-[6-[5-(6,7-dihydro-5~{H}-cyclopenta[c]pyridazin-3-ylamino)-6-fluoro-benzimidazol-1-yl]-3-(1-hydroxyethyl)-2-pyridyl]-5-methyl-pyrazole-3-carbonitrile], the IC50 at SIK1 is 207 nM; on SIK2 it was 0.5 nM; on SIK3, 0.6 nM.

As for `Cc1ccc(Nc2cc3ncn(-c4ccc([C@H](C)O)c(-n5nc(OC(F)F)cc5C)n4)c3cc2OC2COC2)nn1` [Example 383, (1S)-1-[2-[3-(difluoromethoxy)-5-methyl-pyrazol-1-yl]-6-[5-[(6-methylpyridazin-3-yl)amino]-6-(oxetan-3-yloxy)benzimidazol-1-yl]-3-pyridyl]ethanol], the IC50 is 5 nM at SIK1, 0.2 nM at SIK2 and 0.5 nM at SIK3.

Turning to `Cc1ccc(Nc2cc3ncn(-c4ccc([C@@H](C)O)c(-n5nc(OC(F)F)cc5C)n4)c3cc2OC2COC2)nn1` [Example 384, (1R)-1-[2-[3-(difluoromethoxy)-5-methyl-pyrazol-1-yl]-6-[5-[(6-methylpyridazin-3-yl)amino]-6-(oxetan-3-yloxy)benzimidazol-1-yl]-3-pyridyl]ethanol], the figures for the IC50 at SIK1, on SIK2 and on SIK3 were 215 nM, 41.3 nM and 80.2 nM, respectively.

As to `Cc1nnc(Nc2cc3ncn(-c4ccc(C(C)O)c(-n5nc(C#N)cc5C)n4)c3cc2F)s1` (stereo not drawn) [Example 385, 1-[6-[6-fluoro-5-[(5-methyl-1,3,4-thiadiazol-2-yl)amino]benzimidazol-1-yl]-3-(1-hydroxyethyl)-2-pyridyl]-5-methyl-pyrazole-3-carbonitrile], the IC50 on SIK1 was 22 nM; at SIK2, 2.8 nM; on SIK3 it was 2.5 nM.

As to `Cc1ccc(Nc2ccc3c(c2)ncn3-c2ccc(C(C)O)c(-c3ccn(CC(F)(F)F)c(=O)c3F)n2)nn1` (stereo not drawn) [Example 386, 3-fluoro-4-[3-(1-hydroxyethyl)-6-[5-[(6-methylpyridazin-3-yl)amino]benzimidazol-1-yl]-2-pyridyl]-1-(2,2,2-trifluoroethyl)pyridin-2-one], the IC50 on SIK1 was found to be 69 nM; on SIK2, 1.2 nM; at SIK3, 1.2 nM.

As for `Cc1ccc(Nc2cc3ncn(-c4ccc(C(C)O)c(-n5nc(C(F)F)cc5C(F)F)n4)c3cc2F)nn1` (stereo not drawn) [Example 387, 1-[2-[3,5-bis(difluoromethyl)pyrazol-1-yl]-6-[6-fluoro-5-[(6-methylpyridazin-3-yl)amino]benzimidazol-1-yl]-3-pyridyl]ethanol], the IC50 was determined as 462 nM at SIK1, 2.3 nM on SIK2 and 1.8 nM on SIK3.

As for `Cc1ccc(Nc2cc3ncn(-c4ccc(C(C)O)c(-n5nc(C#N)cc5C)n4)c3cc2OC(F)F)nn1` (stereo not drawn) [Example 388, 1-[6-[6-(difluoromethoxy)-5-[(6-methylpyridazin-3-yl)amino]benzimidazol-1-yl]-3-(1-hydroxyethyl)-2-pyridyl]-5-methyl-pyrazole-3-carbonitrile], the results for the IC50 at SIK1, on SIK2 and at SIK3 were 11 nM, 0.4 nM and 0.7 nM, respectively.

On to `Cc1ncc(Nc2cc3ncn(-c4ccc([C@H](C)O)c(-n5nc(C#N)cc5C)n4)c3cc2F)cc1F` [Example 391, 1-[6-[6-fluoro-5-[(5-fluoro-6-methyl-3-pyridyl)amino]benzimidazol-1-yl]-3-[(1S)-1-hydroxyethyl]-2-pyridyl]-5-methyl-pyrazole-3-carbonitrile], for which the half-inhibitory concentration (IC50) on SIK1 came out at 23 nM; on SIK2, 4.5 nM; at SIK3, 2 nM.

As for `Cc1cc(C#N)nn1-c1nc(-n2cnc3cc(-c4cnc(N5CCCC5=O)o4)ccc32)ccc1C(C)O` (stereo not drawn) [Example 392, 1-[3-(1-hydroxyethyl)-6-[5-[2-(2-oxopyrrolidin-1-yl)oxazol-5-yl]benzimidazol-1-yl]-2-pyridyl]-5-methyl-pyrazole-3-carbonitrile], the IC50 was found to be 10 nM on SIK1, 2 nM at SIK2 and 4.5 nM on SIK3.

Consider `Cc1ccc(Nc2ccc3c(c2)ncn3-c2ccc(C(C)O)c(OC3CNCC3(F)F)n2)nn1` (stereo not drawn) [Example 393, 1-[2-(4,4-difluoropyrrolidin-3-yl)oxy-6-[5-[(6-methylpyridazin-3-yl)amino]benzimidazol-1-yl]-3-pyridyl]ethanol], for which the IC50 on SIK1 turned out to be 750 nM; at SIK2 it was 25.2 nM; on SIK3 it was 5.5 nM.

On to `COc1cc2c(cc1Nc1cc3c(nn1)CCOC3)ncn2-c1ccc(C(C)O)c(-n2nc(C#N)cc2C)n1` (stereo not drawn) [Example 394, 1-[6-[5-(7,8-dihydro-5~{H}-pyrano[4,3-c]pyridazin-3-ylamino)-6-methoxy-benzimidazol-1-yl]-3-(1-hydroxyethyl)-2-pyridyl]-5-methyl-pyrazole-3-carbonitrile], for which the IC50 is 13 nM at SIK1, 0.3 nM on SIK2 and 0.6 nM on SIK3.

For orientation: IC50 means the point on the concentration scale where inhibition reaches its midpoint.
